Test [1] concerns the target T1, zebrafish Alr (Danio rerio, UniProt A4QNU9).
T1 construct: gene gfer; full-length ORF (191 residues) in pET28b, N-terminal His-tag, expressed in E. coli BL21-DE3, Ni-NTA purified under native condition; about 23 kDa monomer, disulfide-linked dimer
As to the kind of experiment: UV-visible absorption spectrum of purified protein. To be noted: 15 uM protein, free FAD as reference; FAD co-purified from E. coli. It is filed as binding.

Test [2] addresses T2, zebrafish Alr (Danio rerio, UniProt A4QNU9, C131S).
T2 construct: gene gfer; full-length ORF (191 residues) in pET28b, N-terminal His-tag, expressed in E. coli BL21-DE3, Ni-NTA purified under native condition; about 23 kDa monomer, disulfide-linked dimer
The experiment in a line: UV-visible absorption spectrum of purified protein. To be noted: 15 uM protein, free FAD as reference; FAD co-purified from E. coli. It is filed as binding.

The target of test [3] is T1, zebrafish Alr. As to the kind of experiment: Ellman's reagent (free thiol) time course. It is filed as biochemical. To be noted: room temperature. Background: In Ellman's method for cholinesterases, released thiocholine reacts with DTNB.

T1 sequence (A4QNU9 1-191): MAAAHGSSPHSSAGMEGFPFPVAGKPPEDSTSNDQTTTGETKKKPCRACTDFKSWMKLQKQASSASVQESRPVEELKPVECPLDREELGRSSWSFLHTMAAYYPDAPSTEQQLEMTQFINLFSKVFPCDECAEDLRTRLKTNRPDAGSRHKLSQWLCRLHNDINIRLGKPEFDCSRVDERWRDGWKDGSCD
T2 sequence (A4QNU9 1-191 C131S): as the sequence (A4QNU9 1-191) above, with C131S counted along it

Consider `Cc1cc2nc3c(=O)[nH]c(=O)nc-3n(C[C@H](O)[C@H](O)[C@H](O)COP(=O)(O)OP(=O)(O)OC[C@H]3O[C@@H](n4cnc5c(N)ncnc54)[C@H](O)[C@@H]3O)c2cc1C` [FAD], for which the “UV-visible absorption spectrum of purified protein” value was “Zebrafish Alr also binds FAD as determined by spectroscopic absorption” on zebrafish Alr [1]; “wild type Alr protein and mutant Alr^C131S protein are characteristic of the FAD moiety” at zebrafish Alr [2].

For `OC(CS)C(O)CS` (stereo not drawn) [DTT], at zebrafish Alr [3], the “Ellman's reagent (free thiol) time course” value is “Zebrafish Alr oxidized DTT efficiently, while Alr^C131S completely lost this activity”.

The values are drawn from publication PMC3266923, “Augmenter of Liver Regeneration (alr) Promotes Liver Outgrowth during Zebrafish Hepatogenesis” (PLoS ONE, 2012).
